Data on ten compounds can be found in patent US20070142462A1, “Method of Treating Cancer” (The University of Utah, priority 2000, published 2007).

What all share (assay type): cell-based, human
One test has as its system M1619 melanoma cells. The test is described as follows: MTT proliferation assay, M1619 melanoma. The conditions noted are these: for Proliferation of M1619 melanoma cells (MTT, A540): 10% FBS, agents added at plating, 48 hours (ebselen 72 hours). On the procedure:
Measurement of Proliferation in Cell Cultures. Proliferation of cultured cells was quantitated using a previously reported calorimetric method based upon metabolic reduction of the soluble yellow tetrazolium dye 3-[4,5-dimethylthiazol]-2yl-2,5-diphenyl tetrazolium bromide (MTT) to its insoluble purple formazan by the action of mitochondrial succinyl dehydrogenase. […] This assay empirically distinguishes between dead and living cells. For proliferation studies, cells were seeded into 24-well uncoated plastic plates (Costar) at 15,000-50,000 cells per well and cultured with respective media and mitogens. After 24-96 hours, medium was removed, cells were washed twice with 1 ml of sterile Dulbecco's modified phosphate buffered saline without Ca^2+ or Mg^2+ (DPBS), the medium was replaced with 1 ml/well fresh medium containing 100 μg/ml MTT, and plates were incubated an additional hour. MTT-containing medium was removed, 0.5 ml dimethylsulfoxide (DMSO) was added to each well, and the absorbance of the solubilized purple formazan dye was measured at 540 nm. A total of 4-6 wells was studied at each treatment condition. Preliminary studies were performed with 50-200 μg/ml MTT incubated for 15 min to 3 hours to determine the optimum concentration and incubation time at which the rate of conversion was linear and proportional to the number of cells present.
(§1) Cell Culture Treatments. The effect of antioxidant treatments on proliferation of malignant cell lines was studied in cultures stimulated with 10% FBS. Cell numbers were quantitated by the MTT assay 24-72 hours later. In some experiments, antioxidants were added immediately after cells were plated. In other experiments, cells were plated and allowed to grow for 24 hours before fresh media with antioxidants was added, and cell numbers were studied by the MTT assay 48 hours later.
A. M1619 melanoma cells stimulated with 10% fetal bovine serum (FBS) were plated at a density of 50,000 cells per well and antioxidants were added to wells at the indicated concentrations (mM or U/ml). After 48 hours, proliferation was quantitated by assessing the cell number-dependent reduction of the soluble yellow tetrazolium dye 3-[4,5-dimethylthiazol]-2yl-2,5-diphenyl tetrazolium bromide (MTT) to its insoluble formazan, measured as the absorbance at 540 nm (A540). The antioxidants tested included no antioxidant (control, i.e., FBS alone), 1000 U/ml SOD, 20 mM NAC, 500 U/ml, 1000 U/ml, and 3000 U/ml of catalase, and boiled […] catalase.
B. In a separate experiment, 2 μl/well of DMSO (served as control), 5 μM, 10 μM, and 25 μM Ebselen were tested on M1619 melanoma cells as described above, except that the cells were cultured for 72 hours before proliferation was measured.
C. 3000 U/ml Catalase, 2 μl/well DMSO, 25 μM Ebselen, and 50 μM Ebselen were tested as described above except that the compounds were added 24 hours after M1619 cells were plated. After the addition of antioxidants, the cells were incubated for an additional 48 hours and cell proliferation was quantitated. […]
In general terms: Tetrazolium assays rely on reduction of a dye to a coloured formazan, in cell work by metabolically active cells.

The subject of a further test is M1619 cells. Nature of the test: Ferricytochrome c reduction (O2− generation) by M1619 cells. The note with it: 160 μM ferricytochrome c; capsaicin 100 μM; dicumarol 250 μM pre-treatment 60 min; other inhibitors as. On the procedure: Measurement of Reactive Oxygen Species. Superoxide (O2^−) generation was measured by the technique of superoxide dismutase (SOD) inhibitable reduction of ferricytochrome c, employing a modification allowing absorbance reading with an automatic enzyme immunoassay reader. See Friovich, I. in Handbook of Methods for Oxygen Radical Research (Greenwald, R. A., ed.), pp 121-122, CRC Press, Boca Raton, Fla., 1985; Pick, E. et al. J. Immunol. Methods 46:211-226 (1981). Confluent cells grown on 24-well plates were washed with DPBS, and incubated in 5% CO2/air at 37° C. with 160 μM ferricytochrome c in total volume of 550 μl of sodium bicarbonate-containing Krebs-Heinseleit buffer, or Hanks Balanced Salt Solution (HBSS), with and without copper-zinc SOD (1,000 units/ml). See Nozik-Grayck, et al., Am J. Physiol. 273 (17):L296-L304 (1997). The absorbance of each well was measured at 550 nm initially and 3-24 hours later using an ELx800 UV automated microplate reader (Biotek Instruments, Highland Park, Vt.). Monolayers were then washed with DPBS, and cell protein was measured using the BCA protein assay (Pierce). O2^− generation, normalized to cell protein, was computed from the Beer-Lambert relationship, as the quotient of SOD-inhibitable increase absorbance over time divided by the difference between the molar extinction coefficients for ferricytochrome c and ferrocytochrome c (ΔEM=2.1×10^4 M^−1 cm^−1). See Bashford, in Spectrophotometry & Spectrofluorimetry. A Practical Approach (Harris, D. A., and Bashford, C. L., eds) pp. 1-22, IRL Press, Washington, D.C., 1987; Friovich, I. in Handbook of Methods for Oxygen Radical Research (Greenwald, R. A., ed) pp 121-122, CRC Press, Boca Raton, Fla., 1985. […].
A. Capsaicin inhibits ferricytochrome c reduction. M1619 cells grown on 24-well plates were washed with DPBS, and incubated in 5% CO2/air at 37° C. with 160 μM ferricytochrome c in total volume of 550 μl of HBSS with or without the quinone analog capsaicin (100 μM final concentration) added in 5 μl/ml of ethanol. The absorbance of each well was measured at 550 nm initially and 3 hours later using an ELx800 UV automated microplate reader (Biotek Instruments, Highland Park, Vt.). The results are illustrated in FIG. 8A.
. […]. The results are illustrated in FIG. 9A.

The subject of another test is p65 component of NF-κB. Nature of the test: Immunohistochemical localization of p65 in M1619 cells. The conditions noted are these: 24 hours, catalase 3,000 U/ml, apocynin 150 μg/ml, dicumarol 250 μM. On the procedure: The effect of antioxidants on nuclear activation of NF-κB was studied by incubating near confluent (70%) cell cultures with antioxidant treatments for 1-48 hours. Nuclear protein was harvested, and EMSAs were performed using DNA consensus binding sequences, or nuclear translocation of the p65 component of NF-κB was studied by immunoperoxidase staining, as outlined below.
Immunohistochemical Localization of NF-κB. Cells grown on sterile coverslips and treated with catalase 3,000 U/ml, apocynin 150 μg/ml, or DPBS or DMSO vehicles for 24 h were fixed for 20 min on ice with 4% paraformaldehyde in DPBS with protease inhibitors, PI [Sigma protease inhibitor cocktail, 10 μl/ml, containing 4-(2-aminoethyl)benzensulfonyl fluoride (AEBSF), pepstatin A, trans-epoxysuccinyl-L-leucylamindo-(guanidino)butane (E-64), bestatin, leupeptin and aprotinin]. Cells were permeabilized by treating for 2 min with 0.1% NP-40 in DPBS/PI, washed once with cold DPBS and fixed as before for 10 min. Coverslips were incubated in 3% hydrogen peroxide for 30 min to suppress any remaining peroxidase, and washed three times in cold DPBS. The permeabilized and fixed cells were blocked for 2 hours with 2% BSA in DPBS on ice and incubated overnight at 4° C. with 1 μg/ml of anti-p65 antibody (Santa Cruz) diluted in 0.1% BSA/DPBS. Unbound anti-p65 was washed away with 2% BSA/DPBS and bound antibody was stained by incubation with biotinylated goat anti-rabbit immunoglobulin diluted 1:50 in 0.1% BSA/DPBS for 45 min on ice. Excess secondary antibody was washed away by 3 washes with 2% BSA/DPBS on ice. After washing, the cells were incubated with a streptavidin-biotin-peroxidase complex at room temperature for 1 hr, washed again, and incubated in 0.03% wt/vol 3-3′diaminobenzidine with 0.003% vol/vol hydrogen peroxide until a brown reaction product could be seen. Cells were then counterstained with eosin and mounted on glass slides before viewing under light microscopy. […]

The test system of the next test is NF-κB. Nature of the test: EMSA of constitutive nuclear NF-κB DNA binding, M1619. The note with it: 24 hours, catalase 3,000 U/ml, NAC 20 mM, Ebselen 25 μM, dicumarol 250 μM. The text has this: Electrophoretic Mobility Shift Assays (EMSAs). […] J. Respir.
(In general: A gel shift assay detects complexes by their altered migration in electrophoresis.)

Another test relates to Melanoma M1585 cells. The test is described as follows: MTT proliferation assay, M1585 melanoma. The note with it: Homo sapiens; Ebselen 25 μM; 10% FBS; 48 hours; mean±SE vs FBS+DMSO control; read-out: Percent Growth Inhibition. How it is done:
(§2) Measurement of Proliferation in Cell Cultures. […] This assay empirically distinguishes between dead and living cells.
as §1
(§3) Cells stimulated with 10% FBS were plated at a density of 50,000 cells per well. DMSO and antioxidants were added to cell wells at the indicated concentrations. […] Each value represents a mean of at least 4 experiments.

Test [1] relates to LNCaP.FGC prostate adenocarcinoma cells. The test is described as follows: MTT proliferation assay, LNCaP.FGC prostate adenocarcinoma. The note with it: Homo sapiens; Ebselen 25 μM; 10% FBS; 48 hours; mean±SE vs FBS+DMSO control; read-out: Percent Growth Inhibition. How it is done:
as §2, §1, §3

Test [2] relates to breast carcinoma MDA-MB-453 cells. Nature of the test: MTT proliferation assay, MDA-MB-453 breast carcinoma. The note with it: Homo sapiens, MDA-MB-453; Ebselen 25 μM; 10% FBS; 72 hours; mean±SE vs FBS+DMSO control; read-out: Percent Growth Inhibition. How it is done:
as §2, §1, §3

In test [3] the test system is Adeno-squamous lung carcinoma NCI-H596 cells. The test is described as follows: MTT proliferation assay, NCI-H596 lung carcinoma. The note with it: Homo sapiens, NCI-H596; Ebselen 25 μM; 10% FBS; 48 hours; mean±SE vs FBS+DMSO control; read-out: Percent Growth Inhibition. On the procedure: as §2, §1, §3

On to `COc1ccc2c(c1)c(CC(=O)O)c(C)n2C(=O)c1ccc(Cl)cc1` [indomethacin], for which, in the test on M1619 melanoma cells, the “Proliferation of M1619 melanoma cells (MTT, A540)” value (from here on “Proliferation … (MTT, A540)”) is given as “Neither cellular reduction of ferricytochrome c nor proliferation were reduced”. Also, in the test with M1619 cells, the “ferricytochrome c reduction by M1619 cells” value (shortened to “ferricytochrome c reduction”) is “Neither cellular reduction of ferricytochrome c nor proliferation were reduced”.

Regarding `Oc1ncnc2[nH]ncc12` [allopurinol], in the test with M1619 melanoma cells, the “Proliferation … (MTT, A540)” value was “Neither cellular reduction of ferricytochrome c nor proliferation were reduced”. Moreover, the “ferricytochrome c reduction” value in the test on M1619 cells is on record as “Neither cellular reduction of ferricytochrome c nor proliferation were reduced”.

In the case of `COc1cc(CNC(=O)CCCC/C=C/C(C)C)ccc1O` [capsaicin, 8-methyl-N-vanillyl-6-noneamide], in the test on M1619 melanoma cells, the “Proliferation … (MTT, A540)” value was “significantly reduced proliferation”. Moreover, the “ferricytochrome c reduction” value in the test on M1619 cells is listed as “significantly decreased”.

As for `COc1cc(C(C)=O)ccc1O` [apocynin, 4′-hydroxy-3′-methoxy-acetophenone], in the test with M1619 melanoma cells, the “Proliferation … (MTT, A540)” value is reported as “significantly reduced proliferation”. For the same compound, the “anti-p65 staining in nuclei (nuclear translocation of NF-κB)” value with p65 component of NF-κB is recorded as “little staining in nuclei”.

Regarding `C=C(C)[C@H]1Cc2c(ccc3c2O[C@@H]2COc4cc(OC)c(OC)cc4[C@@H]2C3=O)O1` [retenone], the “Proliferation … (MTT, A540)” value with M1619 melanoma cells is given as “Neither cellular reduction of ferricytochrome c nor proliferation were reduced”. In the test with M1619 cells, the “ferricytochrome c reduction” value is “Neither cellular reduction of ferricytochrome c nor proliferation were reduced”.

Regarding `CN/C(=N/CCSCc1nc[nH]c1C)NC#N` [cimetidine], the “Proliferation … (MTT, A540)” value in the test with M1619 melanoma cells was “Neither cellular reduction of ferricytochrome c nor proliferation were reduced”. Moreover, in the test on M1619 cells, the “ferricytochrome c reduction” value is reported as “Neither cellular reduction of ferricytochrome c nor proliferation were reduced”.

Consider `O=c1c2ccccc2[se]n1-c1ccccc1` [Ebselen, 2-phenyl-1,2-benzisoselenazol-3(2H)-one], for which the “Proliferation … (MTT, A540)” value with M1619 melanoma cells was “dramatically reduced”. Further, in the test on M1619 melanoma cells (catalase 3000 U/ml, Ebselen 25 and 50 μM, further 48 hours), the “Proliferation of M1619 melanoma cells, agents added 24 hours after plating” value is “antiproliferative”. Further, the “constitutive NF-κB DNA binding activity in nuclear protein” value in the test with NF-κB is listed as “substantially reduced”. Also, the inhibition at 25 µM came to 94 ± 2% in the test on Melanoma M1585 cells, 100% in test [1], 69 ± 4% in test [2] and 57 ± 2% in test [3].

Consider `CC(=O)N[C@@H](CS)C(=O)O` [N-acetylcysteine], for which the “Proliferation … (MTT, A540)” value in the test with M1619 melanoma cells is listed as “reduced proliferation”.

In the case of `N=C(NCCC[C@H](N)C(=O)O)N[N+](=O)[O-]` [ω-nitro-L-arginine, Nω-nitro-L-arginine], the “Proliferation … (MTT, A540)” value with M1619 melanoma cells is “Neither cellular reduction of ferricytochrome c nor proliferation were reduced”. For the same compound, the “ferricytochrome c reduction” value with M1619 cells is reported as “Neither cellular reduction of ferricytochrome c nor proliferation were reduced”.

As to `c1ccc2c(c1)[I+]c1ccccc1-2` [diphenylene iodonium chloride], the “Proliferation … (MTT, A540)” value with M1619 melanoma cells was “significantly reduced proliferation”.

For orientation: inhibition means the share of the control response that was lost under treatment.
